The source made the active and inactive calls. No cut-off for these calls is given here.
How the values were obtained:
[1] = Cytotoxicity against human Huh7.5.1 cells; type: cell-based, Huh-7
[2] = tested on: Hepatitis C virus; experiment: Antiviral activity against HCV genotype 2a JFH-1 infected in human Huh7.5.1 cells after 2 hrs by luciferase assay; type: functional, organism-based, Hepacivirus hominis; details: JFH-1, Huh-7, 2 h
[3] = tested on: Hepatitis C virus; experiment: Antiviral activity against HCV genotype 2a JFH-1 in human Huh7.5.1 cells assessed as reduction of viral entry up to 3 hrs by luciferase assay; type: functional, organism-based; details: Hepacivirus hominis, Huh-7
[4] = tested on: Hepatitis C virus; experiment: Antiviral activity against HCV genotype 2a JFH-1 in human Huh7.5.1 cells assessed as inhibition of viral attachment to heparan sulfate proteoglycans at 10 nM at 4 degC by luciferase assay; type: functional, organism-based; details: Hepacivirus hominis, Huh-7
[5] = tested on: Hepatitis C virus; experiment: Antiviral activity against HCV genotype 1b Con-1 infected in human HuH7 cells after 72 hrs by luciferase based replicon assay; type: functional, organism-based; details: Hepacivirus hominis; isolate Con1; Huh-7
[6] = tested on: Hepatitis C virus; experiment: Ratio of RO8191 EC50 to compound EC50 for HCV genotype 2a JFH-1 infected in human Huh7.5.1 cells after 2 hrs by luciferase assay; type: functional, Hepacivirus hominis, Huh-7
[7] = tested on: Hepatitis C virus; experiment: Antiviral activity against HCV; type: functional, organism-based, Hepacivirus hominis
[8] = tested on: HepG2; experiment: Activation of ISRE reporter gene in human HepG2 cells at 2 to 50 uM after 24 hrs by luciferase assay; type: functional, cell-based
[9] = tested on: Huh-7; experiment: Activation of ISRE reporter gene in human HuH7 cells at 2 to 50 uM after 24 hrs by luciferase assay; type: functional, cell-based
[10] = tested on: Huh-7; experiment: Activation of ISRE reporter gene in human Huh7.5.1 cells at 2 to 50 uM after 24 hrs by luciferase assay; type: functional, cell-based
[11] = tested on: Vero; experiment: Activation of ISRE reporter gene in African green monkey Vero cells at 4 to 100 uM after 24 hrs by luciferase assay; type: functional, cell-based; details: Chlorocebus sabaeus
[12] = Cmax in Wistar rat at 100 mg/kg, po; type: ADME, organism-based; set-up: dose 100 mg/kg, route oral; details: in vivo
[13] = AUC ( 0 to 24 hrs) in Wistar rat at 100 mg/kg, po; type: ADME, organism-based; set-up: time < 24 hr, dose 100 mg/kg, route oral; details: in vivo
[14] = Cytotoxicity against human HepAD38 cells; type: cell-based
[15] = Tmax in Wistar rat at 100 mg/kg, po; type: ADME, organism-based; details: in vivo
[16] = tested on: Hepatitis C virus; experiment: Antiviral activity against HCV genotype 2a JFH-1 in human Huh7.5.1 cells assessed as inhibition of post-attachment infection phase at 0.2 uM after 3 days by luciferase assay; type: functional, Hepacivirus hominis; details: JFH-1, Huh-7, 72 h
[17] = AUC ( 0 to infinity) in Wistar rat at 100 mg/kg, po; type: ADME, organism-based; set-up: dose 100 mg/kg, route oral, time infinity; details: in vivo
[18] = Cytotoxicity against human GHOST cells; type: cell-based
[19] = tested on: Hepatitis B virus; experiment: Antiviral activity against HBV infected in human HepAD38 cells; type: functional, organism-based
[20] = Cytotoxicity against human HuH7 cells; type: cell-based, Huh-7
[21] = tested on: Hepatitis C virus; experiment: Antiviral activity against HCV genotype 2a JFH-1 in human Huh7.5.1 cells assessed as inhibition of viral attachment to heparan sulfate proteoglycans at 0.2 uM at 4 degC by luciferase assay; type: functional, organism-based; details: Hepacivirus hominis, Huh-7
[22] = tested on: Human immunodeficiency virus; experiment: Antiviral activity against HIV infected in human Ghost cells; type: functional, organism-based; details: Human immunodeficiency virus 1, Ghost
[23] = Cytotoxicity against human RD cells; type: cell-based
[24] = Elimination half life in Wistar rat at 100 mg/kg, po; type: ADME, organism-based; details: in vivo, read-out: beta t1/2 (converted)
[25] = tested on: Middle East respiratory syndrome-related coronavirus; experiment: Antiviral activity against MERS infected in human HuH7 cells; type: functional, cell-based; details: Huh-7
[26] = tested on: Enterovirus A71; experiment: Antiviral activity against EV71 infected in human RD cells; type: functional, organism-based; details: Enterovirus A

Nc1ccccc1NC(=O)c1cn2c(ccc3c(C(F)(F)F)cc(C(F)(F)F)nc32)n1
CC50 [1]: > 25 µM
EC50 [2]: > 20 µM

COC(=O)C1CCN(C(=O)c2cn3c(ccc4c(C(F)(F)F)cc(C(F)(F)F)nc43)n2)CC1
CC50 [1]: > 25 µM
EC50 [2]: 12.7 µM

CO/C1=C\C(C)=C\[C@@H](C)[C@@H](O)[C@@H](C)C/C(C)=C/C=C/[C@H](OC)[C@@H]([C@@H](C)[C@@H](O)[C@H](C)[C@@]2(O)C[C@@H](O)[C@H](C)[C@@H](C(C)C)O2)OC1=O
inhibition [3]: Active
inhibition [4]: inactive

COC(=O)C1CCCN(C(=O)c2cn3c(ccc4c(C(F)(F)F)cc(C(F)(F)F)nc43)n2)C1 (centres undefined)
CC50 [1]: > 25 µM
EC50 [2]: 2.54 µM

CC1CN(C(=O)c2cn3c(ccc4c(C(F)(F)F)cc(C(F)(F)F)nc43)n2)CCN1 (centres undefined)
Activity [5]: inactive
CC50 [1]: > 25 µM
EC50 [2]: 0.067 µM
Ratio EC50 [6]: 5

O=C1CN(C(=O)c2cn3c(ccc4c(C(F)(F)F)cc(C(F)(F)F)nc43)n2)CCN1
CC50 [1]: > 25 µM
EC50 [2]: 12.5 µM

O=C(c1cn2c(ccc3c(C(F)(F)F)cc(C(F)(F)F)nc32)n1)N1CCCC1CO (centres undefined)
CC50 [1]: > 25 µM
EC50 [2]: 16.6 µM

O=C(c1cn2c(ccc3c(C(F)(F)F)cc(C(F)(F)F)nc32)n1)N1CCNCC1
Activity [5]: inactive
CC50 [1]: > 25 µM
EC50 [2]: 0.046 µM
Ratio EC50 [6]: 5

O=C(c1cn2c(ccc3c(C(F)(F)F)cc(C(F)(F)F)nc32)n1)N1CCOCC1
CC50 [1]: > 25 µM
EC50 [2]: > 20 µM

O=C(c1cn2c(ccc3c(C(F)(F)F)cc(C(F)(F)F)nc32)n1)N1CCC(CO)CC1
CC50 [1]: > 25 µM
EC50 [2]: > 20 µM

CN(C)CCNC(=O)c1cn2c(ccc3c(C(F)(F)F)cc(C(F)(F)F)nc32)n1
Activity [5]: inactive
CC50 [1]: > 25 µM
EC50 [2]: 0.069 µM

Nc1ccc(NC(=O)c2cn3c(ccc4c(C(F)(F)F)cc(C(F)(F)F)nc43)n2)cc1
CC50 [1]: > 25 µM
EC50 [2]: > 20 µM

FC(F)(F)c1cc(C(F)(F)F)c2ccc3nc(-c4nnco4)cn3c2n1
EC50 [7]: 0.203 µM
Activity [5]: Active
Activity [8]: Active
Activity [9]: Active
Activity [10]: Active
Activity [11]: Active

Nc1cccc(NC(=O)c2cn3c(ccc4c(C(F)(F)F)cc(C(F)(F)F)nc43)n2)c1
CC50 [1]: > 25 µM
EC50 [2]: > 20 µM

NCCCCNC(=O)c1cn2c(ccc3c(C(F)(F)F)cc(C(F)(F)F)nc32)n1
CC50 [1]: > 25 µM
EC50 [2]: 1.13 µM

COC(=O)CN1CCN(C(=O)c2cn3c(ccc4c(C(F)(F)F)cc(C(F)(F)F)nc43)n2)CC1
CC50 [1]: > 25 µM
EC50 [2]: 13.2 µM

CNCCN(C)C(=O)c1cn2c(ccc3c(C(F)(F)F)cc(C(F)(F)F)nc32)n1
Activity [5]: inactive
CC50 [1]: > 25 µM
EC50 [2]: 0.02 µM
Ratio EC50 [6]: 5

NC1CCN(C(=O)c2cn3c(ccc4c(C(F)(F)F)cc(C(F)(F)F)nc43)n2)CC1
Activity [5]: inactive
CC50 [1]: > 25 µM
EC50 [2]: 0.102 µM

NCCNC(=O)c1cn2c(ccc3c(C(F)(F)F)cc(C(F)(F)F)nc32)n1
Cmax [12]: 2050 nM
inhibition [3]: Active
AUC(0-t) at 24 h [13]: 19 µM·h
CC50 [14]: > 20 µM
Tmax [15]: 2.17 h
inhibition at 0.2 µM [16]: 90%
AUC(0-inf) [17]: 19.1 µM·h
CC50 [18]: > 20 µM
Activity [5]: inactive
EC50 [19]: > 20 µM
CC50 [20]: > 20 µM
CC50 [1]: > 25 µM
inhibition [21]: Active
EC50 [2]: 0.017 µM
EC50 [22]: > 20 µM
CC50 [23]: > 20 µM
Activity [8]: inactive
half-life [24]: 2.93 h
Activity [9]: inactive
EC50 [25]: > 20 µM
EC50 [26]: > 20 µM
Activity [10]: inactive
Ratio EC50 [6]: 5
Activity [11]: inactive

CCOC(=O)[C@@H](CCCCN)NC(=O)c1cn2c(ccc3c(C(F)(F)F)cc(C(F)(F)F)nc32)n1
CC50 [1]: > 25 µM
EC50 [2]: 0.14 µM

NCCCNC(=O)c1cn2c(ccc3c(C(F)(F)F)cc(C(F)(F)F)nc32)n1
CC50 [1]: > 25 µM
EC50 [2]: 1.3 µM

CN1CCN(C(=O)c2cn3c(ccc4c(C(F)(F)F)cc(C(F)(F)F)nc43)n2)CC1
Activity [5]: inactive
CC50 [1]: > 25 µM
EC50 [2]: 0.159 µM

NC1CCN(C(=O)c2cn3c(ccc4c(C(F)(F)F)cc(C(F)(F)F)nc43)n2)C1 (centres undefined)
Activity [5]: inactive
CC50 [1]: > 25 µM
EC50 [2]: 0.021 µM
Ratio EC50 [6]: 5

NC1CCCCC1NC(=O)c1cn2c(ccc3c(C(F)(F)F)cc(C(F)(F)F)nc32)n1 (centres undefined)
Activity [5]: inactive
CC50 [1]: > 25 µM
EC50 [2]: 0.048 µM
Ratio EC50 [6]: 5

O=C(c1cn2c(ccc3c(C(F)(F)F)cc(C(F)(F)F)nc32)n1)N1CCC(O)CC1
CC50 [1]: > 25 µM
EC50 [2]: > 20 µM
